Values after ≈ are worked out from the molar mass of the structure shown.
Assays:
Type in all cases: cell-based
[1] = test system: methicillin-resistant S. aureus SA 3202; experiment: MBC, agar aliquot subculture method, MRSA1; settings: Staphylococcus aureus; 99.9% decrease in CFU, 24 h, 37 °C
Excerpt: The activities of the individual derivatives were expressed as minimum inhibitory concentrations (MICs) and minimum bactericidal concentrations (MBCs) and are shown in Table 3 together with the values of the antibiotics used as standards for comparison. […] MBC values of bactericidal compounds are indicated in bold in Table 3.
For the above-mentioned strains/isolates, the agar aliquot subculture method was used as a test for bactericidal agents. After the MIC value determination, the inoculum was transferred to CaMH (Oxoid) for staphylococci, and BHI (Oxoid) for enterococci medium using a multipoint inoculator. The plates were incubated in a thermostat at 37 °C for 24 h. The lowest concentration of test compound at which ≤5 colonies were obtained was then evaluated as MBC, corresponding to a 99.9% decrease in CFU relative to the original inoculum.

[2] = test system: Enterococcus faecalis ATCC 29212; experiment: MIC, microtitration broth method, EF; settings: ATCC29212, 24 h, 37 °C, BHI broth
Excerpt: (§1) Since there is a general decrease in immunity during the treatment of oncological patients, i.e., patients are more susceptible to infectious diseases, it is advantageous if anticancer agents show antimicrobial properties at the same time. Therefore, the effects of the compounds were also investigated against Gram-positive bacteria. For this purpose, the susceptible collection strains of aerobic Staphylococcus aureus ATCC 29213 and facultatively aerobic Enterococcus faecalis ATCC 29212 and resistant clinical isolates of methicillin-resistant S. aureus (MRSA) SA 3202, SA 630 carrying the mecA gene, and vancomycin-resistant isolates of E. faecalis (VRE) 342B, 368, and 725B carrying the vanA gene were selected. Thus, the selection of the studied bacterial strains was adopted following the CLSI ([…]) international reference methodologies.
(§2) The in vitro antibacterial activity of the synthesized compounds was evaluated against representatives of multidrug-resistant bacteria, […] clinical isolates of methicillin-resistant S. aureus: clinical isolates of human origin, MRSA SA 3202, and MRSA SA 630 (National Institute of Public Health, Prague, Czech Republic), carrying the mecA gene. These two clinical isolates were classified as vancomycin-susceptible (but with a higher MIC of vancomycin equal to 2 μg/mL (VA2-MRSA). Vancomycin- and methicillin-susceptible S. aureus ATCC 29213 and vancomycin-susceptible Enterococcus faecalis ATCC 29212, obtained from the American Type Culture Collection, were used as the reference and quality control strains. Three vanA gene-carrying vancomycin-resistant isolates of E. faecalis (VRE 342B, VRE 368, VRE 725B) (Department of Infectious Diseases and Microbiology, Faculty of Veterinary Medicine, University of Veterinary Sciences Brno, Czech Republic) were provided by Oravcova et al..
(§3) The minimum inhibitory concentrations (MICs) were evaluated by the microtitration broth method according to the CLSI, with some modifications. The compounds were dissolved in DMSO (Sigma, St. Louis, MO, USA) to obtain a concentration of […] and diluted in a microtitration plate in an appropriate medium, i.e., Cation-Adjusted Mueller–Hinton Broth (CaMH, Oxoid, Basingstoke, UK) for staphylococci, and Brain Heart Infusion Broth (BHI, Oxoid) for enterococci to reach the final concentration of 256–0.125 µg/mL. Microtiter plates were inoculated with test microorganisms so that the final concentration of bacterial cells was 10^5. Ampicillin, oxacillin, and ciprofloxacin (Sigma) were used as reference drugs. A drug-free control and a sterility control were included. The plates were incubated for 24 h at 37 °C for staphylococci and enterococci. […] The experiments were repeated three times.

[3] = test system: Staphylococcus aureus ATCC 29213; experiment: MIC, microtitration broth method, SA; settings: ATCC29213, 24 h, 37 °C, CaMH broth
Excerpt: as §1, §2, §3

[4] = test system: vancomycin-resistant E. faecalis VRE 342B; experiment: MIC, microtitration broth method, VRE1; settings: Enterococcus faecalis, 24 h, 37 °C, BHI broth
Excerpt: as §1, §2, §3

[5] = test system: HFF-1 (normal human dermal fibroblasts); experiment: WST-1 cell viability assay, normal HFF-1; settings: HFF-1, WST-1, 72 h exposure, ± SD, n = 6
Description: The synthesized compounds were tested using three cancer cell lines—human amelanotic melanoma (C-32), human breast adenocarcinoma (MDA-MB-231), and human lung adenocarcinoma (A549)—and, for comparison, normal human dermal fibroblasts (HFF-1). The WST-1 (water-soluble tetrazole salt) assay was used to evaluate the effect of the synthesized compounds on the viability of cultured cells.
Compounds were evaluated for their antiproliferative activity using three cultured cell lines: C-32 (human amelanotic melanoma, ATCC, Manassas, VA, USA), A549 (human lung adenocarcinoma, ATCC, Manassas, VA, USA), MDA-MB-231 (human breast adenocarcinoma derived from metastatic site: pleural effusion, ATCC, Manassas, VA, USA), together with HFF-1 (normal human dermal fibroblasts, ATCC, Manassas, VA, USA). The cultured cells were kept at 37 °C and 5% CO2.
Cells were seeded in 96-well plates at 5000/well in 100 μL of medium. After 24 h of incubation, the medium was replaced with a new one with the addition of the test substance. After 72 h, the following tests were performed: with crystal violet (determination of the number of adherent cells in the culture), the WST-1 test (determination of the relative number of living cells and their metabolic activity), and the LDH test (determination of the relative number of dead cells in cultures—cytotoxicity of the tested substance).
WST-1 test: The WST-1 test (Roche Diagnostics, Mannheim, Germany) allows one to determine the relative number of cells in cultures. Absorbance is directly proportional to the number of cells and their metabolic activity. The absorbance measurement is performed at λ = 450 nm (reference wave 600 nm).

[6] = test system: methicillin-resistant S. aureus SA 630; experiment: MIC, microtitration broth method, MRSA2; settings: Staphylococcus aureus; 24 h, 37 °C, CaMH broth
Excerpt: as §1, §2, §3

SMILES	MIC [2]	MIC [3]	MIC [4]	MIC [6]	MBC [1]	IC50 [5]
C#CCNS(=O)(=O)c1ccc(O)c2ncccc12 [3a, 8-Hydroxy-N-(prop-2-yn-1-yl)quinoline-5-sulfonamide]	977 µM (≈ 256 µg/mL)	122 µM (≈ 32 µg/mL)	977 µM (≈ 256 µg/mL)	244 µM (≈ 64 µg/mL)	122 µM (≈ 32 µg/mL)	> 100 µM
C#CC(C)(C)NS(=O)(=O)c1ccc(O)c2ncccc12 [3b, 8-Hydroxy-N-(1,1-dimethylprop-2-yn-1-yl)quinoline-5-sulfonamide]	883 µM (≈ 256 µg/mL)	55.2 µM (≈ 16 µg/mL)	883 µM (≈ 256 µg/mL)	110 µM (≈ 31.9 µg/mL)	110 µM (≈ 31.9 µg/mL)	> 100 µM
C#CCN(C)S(=O)(=O)c1ccc(O)c2ncccc12 [3c, 8-Hydroxy-N-methyl-N-(prop-2-yn-1-yl)quinoline-5-sulfonamide]	464 µM (≈ 128 µg/mL)	29 µM (≈ 8.01 µg/mL)	464 µM (≈ 128 µg/mL)	29 µM (≈ 8.01 µg/mL)	29 µM (≈ 8.01 µg/mL)	> 100 µM
C#CCOc1ccc(NS(=O)(=O)c2ccc(O)c3ncccc23)cc1 [3d, 8-Hydroxy-N-[4-(prop-2-yn-1-yloxy)phenyl]quinoline-5-sulfonamide]	362 µM (≈ 128 µg/mL)	45.2 µM (≈ 16 µg/mL)	362 µM (≈ 128 µg/mL)	90.4 µM (≈ 32 µg/mL)	45.2 µM (≈ 16 µg/mL)	> 100 µM

The next lines start with results.

MIC [2]	MIC [3]	MIC [4]	MIC [6]	SMILES	MBC [1]	IC50 [5]
362 µM (≈ 128 µg/mL)	45.2 µM (≈ 16 µg/mL)	362 µM (≈ 128 µg/mL)	90.4 µM (≈ 32 µg/mL)	C#CCOc1cccc(NS(=O)(=O)c2ccc(O)c3ncccc23)c1 [3e, 8-Hydroxy-N-[3-(prop-2-yn-1-yloxy)phenyl]quinoline-5-sulfonamide]	90.4 µM (≈ 32 µg/mL)	> 100 µM
362 µM (≈ 128 µg/mL)	45.2 µM (≈ 16 µg/mL)	362 µM (≈ 128 µg/mL)	90.4 µM (≈ 32 µg/mL)	C#CCOc1ccccc1NS(=O)(=O)c1ccc(O)c2ncccc12 [3f, 8-Hydroxy-N-[2-(prop-2-yn-1-yloxy)phenyl]quinoline-5-sulfonamide]	90.4 µM (≈ 32 µg/mL)	28.1 ± 2.2 µM

From PMC11396667, “Design, Synthesis, and Anticancer and Antibacterial Activities of Quinoline-5-Sulfonamides” (Molecules, 2024)
